The results in this text go back to patent publication US10752588B2 (The Broad Institute, Inc., priority 2014, dated 2020).

The target of data set [1] is T1, human D2R/β-arrestin (Homo sapiens (Human), UniProt P14416). Nature of the data set: β-Arrestin agonist assay (PathHunter). Format: cell-based. To be noted: CHO-K1 cell line expressing human D2R/β-arrestin. In a few lines: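 After compound incubation, detection reagent (Buffer:Emerald II:Galactor-Star, 19:5:1) added and luminescence or fluorescence read.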
T1 sequence (P14416 whole entry): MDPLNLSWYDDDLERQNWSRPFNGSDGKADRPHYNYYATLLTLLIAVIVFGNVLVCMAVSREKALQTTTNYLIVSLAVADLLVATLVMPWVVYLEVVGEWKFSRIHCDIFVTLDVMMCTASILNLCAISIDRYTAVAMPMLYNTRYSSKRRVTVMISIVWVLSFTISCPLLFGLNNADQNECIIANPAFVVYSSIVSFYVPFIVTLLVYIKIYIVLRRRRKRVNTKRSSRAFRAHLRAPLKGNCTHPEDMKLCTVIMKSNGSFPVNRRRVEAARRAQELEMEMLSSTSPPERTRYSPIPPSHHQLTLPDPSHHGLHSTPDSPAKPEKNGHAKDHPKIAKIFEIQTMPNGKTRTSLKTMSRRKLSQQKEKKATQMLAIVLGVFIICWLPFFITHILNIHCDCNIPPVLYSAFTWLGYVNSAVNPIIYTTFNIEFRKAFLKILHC
The target of data set [2] is T1, human D2R/β-arrestin. Nature of the data set: cell-based. To be noted: cAMP Antagonist, CHO-K1 cell line expressing human D2R/β-arrestin; quinpirole used as agonist.
A further data set has as its system Caco2. Kind of data set: Caco2 permeability. As to conditions: for Caco2 A-B: A-B direction; for Caco2 B-A: B-A direction. Also noted: unit not given beside the values. Type of data set: in vitro ADME. (In general: Caco-2 monolayers are a common model of the intestinal barrier.)
Data set [3] concerns the target T1, human D2R/β-arrestin. Nature of the data set: cell-based. To be noted: β-arrestin Antagonist, CHO-K1 cell line expressing human D2R/β-arrestin; quinpirole used as agonist.
The target of data set [4] is T1, human D2R/β-arrestin. Kind of data set: Gi/cAMP agonist assay (Lance Ultra cAMP, Forskolin). To be noted: CHO-K1 cell line expressing human D2R/β-arrestin. Type of data set: cell-based. In outline:
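Cells were plated and incubated before compounds were pin-transferred and incubated for 10 min at 37 °C. Forskolin was then added to stimulate cAMP. cAMP was detected by Lance Ultra TR-FRET using Eu-cAMP tracer and ULight-anti-cAMP antibody.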

For data set [5], the system named is plasma protein. Nature of the data set: Plasma protein binding, human. As to conditions: plasma, read-out: Plasma Protein Binding % bound. Type of data set: in vitro ADME.
The next data set in a line: Plasma stability, human. Type of data set: in vitro ADME.
Another data set can be described thus: Plasma stability, rat. Format: in vitro ADME.
Data set [6] has as its system plasma protein. Kind of data set: Plasma protein binding, mouse. Type of data set: in vitro ADME. As to conditions: plasma, read-out: Plasma Protein Binding % bound.
Data set [7] is described as follows: Microsomal stability, rat. Type of data set: in vitro ADME.
Data set [8] is described as follows: Microsomal stability, human. Type of data set: in vitro ADME.
A further data set is described as follows: Solubility in PBS. Type of data set: physicochemical. To be noted: aqueous buffer.
A further data set is described as follows: Rotarod performance. Format: in vivo. As to conditions: mice, 10 or 30 mg/kg, compared with clozaril at 3 mg/kg. How it is done: In the test, test animals are placed on a horizontally oriented, rotating cylinder (rod) suspended above a cage floor. The test animals naturally try to stay on the rotating cylinder, or rotarod, and avoid falling to the ground. Test animals are administered with various compounds (e.g., compounds of the invention or control compounds). The length of time that a given animal stays on this rotating rod is a measure of the animal's balance, coordination, physical condition, and motor-planning. The speed of the rotarod is mechanically driven, and can be held constant.
In the test, mice were placed on a horizontally oriented, rotating cylinder (rod) suspended above a cage floor, which was low enough not to injure the animal, but high enough to induce avoidance of fall. The mice naturally try to stay on the rotating cylinder, or rotarod, and avoid falling to the ground.

Data set [9] is described as follows: Microsomal stability, mouse.
For data set [10], the system named is plasma protein. Kind of data set: Plasma protein binding, rat. Format: in vitro ADME. As to conditions: plasma, read-out: Plasma Protein Binding % bound.
Data set [11] in a line: Plasma protein binding, human. Type of data set: in vitro ADME. To be noted: plasma, read-out: Plasma Protein Binding % bound.
Data set [12] in a line: Plasma protein binding, mouse. Type of data set: in vitro ADME. As to conditions: plasma, read-out: Plasma Protein Binding % bound.
Data set [13] is described as follows: Plasma protein binding, rat. Type of data set: in vitro ADME. To be noted: plasma, read-out: Plasma Protein Binding % bound.
The target of the next data set is D2 (Homo sapiens (Human), UniProt P14416). Kind of data set: D2 radioligand binding assay.
Sequence of D2 (P14416 whole entry): as above
The target of data set [14] is T1, human D2R/β-arrestin. To be noted: CHO-K1 cell line expressing human D2R/β-arrestin, β-arrestin and Gi/cAMP pathways, FIG. 1.
Another data set concerns MDR1-MDCKII. Nature of the data set: MDR1-MDCKII permeability assay. Type of data set: in vitro ADME. From the text:
MDR1-MDCKII Permeability Assay
This is a standard permeability assay that predicts brain penetration. It was ran by the CRO Absorption Systems (www.absorption.com/drug-discovery/permeability/cell-based/).

Values after ≈ are worked out from the molar mass of the structure shown.

A word on the EC50: it is the concentration at which the effect is half-maximal. In general, IC50 refers to the concentration that gives 50% inhibition. For orientation: solubility means how much of the substance goes into solution per volume. `COc1cccc(C(NC(=O)C2CCN(CCOc3ccccc3)CC2)c2ccccn2)c1` (centres unmarked) [Compound 35]: the EC50 is more than 30000 nM on human D2R/β-arrestin [1] and 1000 to 10000 nM on human D2R/β-arrestin [4]. For the same compound, the “Plasma Stability: % remaining after 5 hours” value (from here on “Plasma Stability: % remaining”) in “Plasma stability, mouse” was determined as 98%; in “Plasma stability, human” it was 100%; in “Plasma stability, rat”, 99.6%. In addition, the IC50 at human D2R/β-arrestin [2] and at human D2R/β-arrestin [3] was 1000 to 10000 nM in each case. Also, in the data set with Caco2, the “Caco2 A-B” value is reported as 26.7. Besides, in the data set on Caco2, the “Caco2 B-A” value is reported as 46.7. The fraction unbound in the data set on plasma protein [5] is 0.086; with plasma protein [6] it was 0.074; in the data set with plasma protein [10], 0.042. For the same compound, the results for the “Microsomal Stability: % remaining after 60 minutes” value (from here on “Microsomal Stability: % remaining”) in [7], in data set [8] and in data set [9] were 80%, 83% and 74%, respectively. Further, in “Solubility in PBS”, the solubility is 441 µM (≈ 196 µg/mL). Also, the “catalepsy in the rotarod test” value in the data set “Rotarod performance” was “promotes far less catalepsy than the known antipsychotic Clozapine at efficacious doses”.
By Ki is commonly meant a dissociation constant, usually derived from enzyme kinetics or from competition with a known ligand. Regarding `O=C(NC(c1ccc(Cl)cc1)c1ccccn1)C1CCN(CCOc2ccccc2Cl)CC1` (centres unmarked) [Compound 66, 1-(2-(2-chlorophenoxy)ethyl)-N-((4-chlorophenyl)(pyridin-2-yl)methyl)piperidine-4-carboxamide], the results for the EC50 at human D2R/β-arrestin [1] and at human D2R/β-arrestin [4] were more than 30000 nM and 10000 to 30000 nM, respectively. Also, the “Plasma Stability: % remaining” value in “Plasma stability, mouse” is recorded as 100%; in “Plasma stability, human”, 99.7%; in “Plasma stability, rat” it was 88.1%. The IC50 on human D2R/β-arrestin [2] and at human D2R/β-arrestin [3] was less than 100 nM each time. Further, the “Caco2 A-B” value with Caco2 is 15.1. The “Caco2 B-A” value in the data set with Caco2 is recorded as 2.4. The fraction unbound in [11] turned out to be 0.007; in data set [12], 0.008; in [13], 0.006. The entries for the “Microsomal Stability: % remaining” value in data set [7], in [8] and in [9] were 35%, 46% and 7%, respectively. In addition, in “Solubility in PBS”, the solubility was determined as 10.5 µM (≈ 5.09 µg/mL). The compound further displayed a Ki at D2 of 100 to 1000 nM.
In the case of `CN(CC1CCN(CCOc2ccccc2)CC1)C(c1ccc(Cl)cc1)c1ccccn1` (centres unmarked) [Compound 79, 1-(4-chlorophenyl)-N-methyl-N-((1-(2-phenoxyethyl)piperidin-4-yl)methyl)-1-(pyridin-2-yl)methanamine], the EC50 at human D2R/β-arrestin [1] is more than 30000 nM; on human D2R/β-arrestin [4] it was less than 100 nM. Moreover, the IC50 was more than 30000 nM on human D2R/β-arrestin [2] and 100 to 1000 nM at human D2R/β-arrestin [3]. For the same compound, the “functional profile at D2R (antagonist mode)” value at human D2R/β-arrestin [14] is “representative β-arrestin biased D2R antagonists”. The “MDR1-MDCKII A-B” value in the data set with MDR1-MDCKII (A-B direction) worked out at 6.17. Further, the “MDR1-MDCKII B-A” value with MDR1-MDCKII (B-A direction) amounted to 22.1. Besides, the “Microsomal Stability: % remaining” value in [9] is reported as “m0%”. At D2, this compound came in with a Ki of 100 to 1000 nM.
On to `O=C(NC(c1ccc(Cl)cc1)c1ccccn1)C1CCN(CCOc2ccc(F)cc2F)CC1` (centres unmarked) [Compound 115, N-((4-chlorophenyl)(pyridin-2-yl)methyl)-1-(2-(2,4-difluorophenoxy)ethyl)piperidine-4-carboxamide], for which the results for the EC50 on human D2R/β-arrestin [1] and at human D2R/β-arrestin [4] were more than 30000 nM and 100 to 1000 nM, respectively. Also, the “Plasma Stability: % remaining” value in “Plasma stability, mouse” was determined as 86.2%; in “Plasma stability, human” it was 91.2%; in “Plasma stability, rat” it was 98.0%. Moreover, the IC50 is more than 30000 nM on human D2R/β-arrestin [2] and 1000 to 10000 nM on human D2R/β-arrestin [3]. In addition, the “Caco2 A-B” value in the data set with Caco2 is listed as 30.4. In the data set with Caco2, the “Caco2 B-A” value was determined as 11.5. Besides, the figures for the fraction unbound in data set [11], in data set [12] and in [13] were 0.008, 0.015 and 0.005, respectively. The “Microsomal Stability: % remaining” value worked out at 77% in data set [7], 63% in data set [8] and 26% in [9]. The compound further had a solubility in the data set “Solubility in PBS” of 220 µM (≈ 107 µg/mL).
